Assay results from US20110288154A1, “RNA Interference Mediated Inhibition of Epithelial Sodium Channel (ENaC) Gene Expression Using Short Interfering Nucleic Acid (siNA)” (MERCK & CO., INC., priority 2008, published 2011).
[invAb] = inverted abasic unit; m = 2'-O-methyl; r = 2'-OH (RNA); f = 2'-fluoro

Tests used:
mSCNN1A mRNA = assay: Screening of ENaCα siNAs in mouse NIH 3T3 cells (quantitative RT-PCR); type: cell-based; design: Percent Reduction of the mSCNN1A mRNA relative to a non-targeting control siNA / Mouse % KD (efficacy of ENaCα mRNA knockdown): concentration or dose not given beside the values; conditions: for Mean (mSCNN1A expression normalized to the level of m36B4) / Percent Reduction of the mSCNN1A mRNA relative to a non-targeting control siNA / Avg ENaCα Expression (mSCNN1A) / Avg 36B4 Expression: mouse NIH 3T3 cells, n = 3; for Mean (mSCNN1A expression normalized to the level of m36B4) / Percent Reduction of the mSCNN1A mRNA relative to a non-targeting control siNA / Avg 36B4 Expression: 24 hours post-transfection; for Avg ENaCα Expression (mSCNN1A): harvested 24 hours post-transfection; for Avg 36B4 Expression: housekeeping gene used for normalisation; for IC50 / Mouse % KD (efficacy of ENaCα mRNA knockdown): mouse cell line; for IC50: dose response, read-out: Mouse IC50 (potency of ENaCα mRNA knockdown); for Mouse % KD (efficacy of ENaCα mRNA knockdown): summary
Method: siNA constructs (Table 1b) may be tested for efficacy in reducing ENaC RNA expression in, for example, A549 human lung carcinoma cells. A549 (human; ATCC cat# CCL-185) cells were cultured at 37° C. in the presence of 5% CO2 and grown in Ham's F12K medium with 2 mM L-glutamine adjusted to contain 1.5 g/L sodium bicarbonate and supplemented with fetal bovine serum at a final concentration of 10% and 100 U/mL penicillin. The A549 cells were plated approximately 24 hours before transfection in 96-well plates at 7,500 cells/well, 100 μl/well. After 24 hours complexes containing siNA and Lipofectamine 2000 (Invitrogen) were created as follows: a solution of Lipofectamine 2000 in OPTI-MEM was prepared containing Lipofectamine 2000 at a final concentration of 14 μg/ml. In parallel, solutions of the siNAs were prepared in OPTI-MEM at a final concentration of 150 nM. After both solutions were incubated at 20° C. for 20 minutes an equal volume of the siNA solutions and the Lipofectamine 2000 solution were added together for each of the siNAs. The resultant solution has the siNAs at a final concentration of 75 nM and Lipofectamine 2000 at a final concentration of 7 μg/ml. This solution was incubated at 20° C. for 20 minutes. After incubation 50 μl of the solution were added to each of the wells (in triplicate). The final concentration of siNA in each well was 25 nM and the final concentration of Lipofectamine 2000 in each well was 2.33 μg/ml. The plates were incubated for 48 hours with no change of media before harvesting. Dose response curves were determined in a similar manner with each concentration being done in triplicate and maintaining a constant amount of Lipofectamine 2000 in each transfection.
(§1) A series of probes and primers were used to detect the various mRNA transcripts of the genes of ENaCa and GAPDH in mouse, rat, and human cell lines. The assays were performed on an ABI 7500 instrument, according to the manufacturer's instructions. Within each experiment, the baseline was set in the exponential phase of the amplification curve, and based on the intersection point of the baselines with the amplification curve, a Ct value was assigned by the instrument. This Ct value was then assigned a QTY value based on the Standard Curve. The standard curve in the various experiments herein used 1 ng to 300 ng of RNA extracted from the same cell line used for the experimental transfections.
(§2) All IC50 values were calculated from the data using GraphPad Prizm software, specifically a sigmoidal, variable slope curve for simple ligand binding. Also, unless otherwise indicated, all calculations of the efficacy and potency (e.g., % knockdown) of the siNAs were done relative to a non-targeting control siNA. If reported, P-values were computed using The Students t-test, including the Welch Correction for unequal variances.
(§3) In all of the calculations of the % knock-down of mRNA, the calculation was made relative to the normalized level of expression of the gene of interest in the samples treated with the non-targeting control (NTC) unless otherwise indicated. The gene of interest expression level was divided by the level of expression of GAPDH or 36B4 (depending on the species) in each sample. The three replicates for each condition in each experiment were averaged and the standard deviation of those samples was calculated. The following formula was then used to calculate the % of knock-down of the gene of interest:
(§4) The ENaCα siNAs were designed and synthesized as described previously. The siNAs were screened in three cell lines. Human A549 cells, mouse NIH 3T3 and Rat H-4-II-E cells. The data from the screen of ENaCa siNAs in all three species is shown in Tables 3a, 3b, 4a, 4b, 5a, and 5b and a summary of the data for certain siNA molecules is presented in Table 6. Each screen was performed at 24 hrs. The decision to use this time point was based upon the degree of knockdown of the mRNA seen at that time point.

rSCNN1A (r ENaCα) mRNA = assay: Screening of ENaCα siNAs in Rat H-4-II-E cells (quantitative RT-PCR); type: cell-based; design: Percent Reduction of the r ENaCα mRNA relative to a non-targeting control siNA (NTCs) / Rat % KD (efficacy of ENaCα mRNA knockdown): concentration or dose not given beside the values; conditions: for Mean (rSCNN1A expression normalized to the level of rGAPDH) / Percent Reduction of the r ENaCα mRNA relative to a non-targeting control siNA (NTCs) / Avg ENaCα Expression (rSCNN1A) / Avg GAPDH Expression (rGAPDH): Rat H-4-II-E cells, n = 3; for Mean (rSCNN1A expression normalized to the level of rGAPDH) / Percent Reduction of the r ENaCα mRNA relative to a non-targeting control siNA (NTCs) / Avg GAPDH Expression (rGAPDH): 24 hours post-transfection; for Avg ENaCα Expression (rSCNN1A): harvested 24 hours post-transfection; for Avg GAPDH Expression (rGAPDH): housekeeping gene used for normalisation; for IC50 / Rat % KD (efficacy of ENaCα mRNA knockdown): rat cell line; for IC50: dose response, read-out: Rat IC50 (potency of ENaCα mRNA knockdown); for Rat % KD (efficacy of ENaCα mRNA knockdown): summary
Method: as §1, §2, §3, §4

Substance | Mean (mSCNN1A expression normalized to the level of m36B4) (mSCNN1A mRNA) | Percent Reduction of the mSCNN1A mRNA relative to a non-targeting control siNA (mSCNN1A mRNA) [%] | Avg ENaCα Expression (mSCNN1A) (mSCNN1A mRNA) | Avg 36B4 Expression (mSCNN1A mRNA) | Mean (rSCNN1A expression normalized to the level of rGAPDH) (rSCNN1A (r ENaCα) mRNA) | Percent Reduction of the r ENaCα mRNA relative to a non-targeting control siNA (NTCs) (rSCNN1A (r ENaCα) mRNA) [%] | Avg ENaCα Expression (rSCNN1A) (rSCNN1A (r ENaCα) mRNA) | Avg GAPDH Expression (rGAPDH) (rSCNN1A (r ENaCα) mRNA) | IC50 (mSCNN1A mRNA) [nM] | Mouse % KD (efficacy of ENaCα mRNA knockdown) (mSCNN1A mRNA) [%] | IC50 (rSCNN1A (r ENaCα) mRNA) [nM] | Rat % KD (efficacy of ENaCα mRNA knockdown) (rSCNN1A (r ENaCα) mRNA) [%]
B AGccAGuGGAGccuGuGGu TTB / ACCAcAGGcuccAcuGGcuUU (sense AGCCAGUGGAGCCUGUGGUTT; antisense ACCACAGGCUCCACUGGCUUU; siRNA; sense: DNA at AGT, 2'-fluoro at CU, [invAb] at 5' end, 3' end, backbone not given here; antisense: sugars from the 5' end rrrmfmmmffffmffmmffmm, backbone not given here) [Site 1756] | 0.12 | 13.5 | 2.58 | 21.66 | 0.57 | 38.3 | 23.08 | 40.27 |  |  |  | 
B cGcAuGAAGAcGGccuucu TTB / AGAAGGccGucuucAuGcGUU (chain 1 CGCAUGAAGACGGCCUUCUTT; chain 2 AGAAGGCCGUCUUCAUGCGUU; siRNA; chain 1: DNA at AGT, 2'-fluoro at CU, [invAb] at 5' end, 3' end, backbone not given here; chain 2: sugars from the 5' end rrrmmmffmfffffmfmfmmm, backbone not given here) [Site 340] | 0.23 | 5.4 | 3.35 | 14.93 | 1.07 | 16.7 | 22.68 | 21.20 |  |  |  | 
B uGuccAAccuGGGcAGccA TTB / UGGcuGcccAGGuuGGAcAUU (sense UGUCCAACCUGGGCAGCCATT; antisense UGGCUGCCCAGGUUGGACAUU; siRNA; sense: DNA at AGT, 2'-fluoro at CU, [invAb] at 5' end, 3' end, backbone not given here; antisense: sugars from the 5' end rrrffmfffmmmffmmmfmmm, backbone not given here) [Site 1742] | 0.14 | 1.0 | 2.91 | 21.48 | 0.79 | 14.3 | 28.30 | 35.68 |  |  |  | 
B GuGGcuGuGccuAcAucuu TTB / AAGAuGuAGGcAcAGccAcUU (sense GUGGCUGUGCCUACAUCUUTT; antisense AAGAUGUAGGCACAGCCACUU; siRNA; sense: DNA at AGT, 2'-fluoro at CU, [invAb] at 5' end, 3' end, backbone not given here; antisense: sugars from the 5' end rrrmfmfmmmfmfmmffmfmm, backbone not given here) [Site 1385] | 0.13 | 4.4 | 2.95 | 22.75 | 0.58 | 36.7 | 19.09 | 30.04 |  |  |  | 
B uuAuGGAuGAuGGuGGcuu TTB / AAGccAccAucAuccAuAAUU (sense UUAUGGAUGAUGGUGGCUUTT; antisense AAGCCACCAUCAUCCAUAAUU; siRNA; B caps on sense ends, letter-case modifications not given here, further chemistry not given here) [Site 1181] | 0.04 | 84.4 | 0.54 | 15.48 | 0.41 | 68.1 | 10.34 | 24.78 | 4.1 | 84 | 1 | 68
B uGuGcAAccAGAAcAAAuc TTB / GAUuuGuucuGGuuGcAcAUU (chain 1 UGUGCAACCAGAACAAAUCTT; chain 2 GAUUUGUUCUGGUUGCACAUU; siRNA; B caps on sense ends, letter-case modifications not given here, further chemistry not given here) [Site 782] | 0.05 | 78.2 | 0.85 | 16.72 | 0.47 | 63.7 | 13.71 | 29.23 | 3.9 | 78 | 0.8 | 63
B GcuGuGccuAcAucuucuA TTB / UAGAAGAuGuAGGcAcAGcUU (sense GCUGUGCCUACAUCUUCUATT; antisense UAGAAGAUGUAGGCACAGCUU; siRNA; B caps on sense ends, letter-case modifications not given here, further chemistry not given here) [Site 1388] | 0.04 | 73.4 | 0.90 | 24.18 | 0.32 | 65.6 | 11.65 | 37.10 | 1.9 | 73 | 0.9 | 65
B GGcuGuGccuAcAucuucu TTB / AGAAGAuGucGGcAcAGccUU (sense GGCUGUGCCUACAUCUUCUTT; antisense AGAAGAUGUCGGCACAGCCUU; siRNA; sense: DNA at AGT, 2'-fluoro at CU, [invAb] at 5' end, 3' end, backbone not given here; antisense: sugars from the 5' end rrrmmmfmffmmfmfmmffmm, backbone not given here) [Site 1387] | 0.06 | 59.1 | 1.37 | 24.37 | 0.71 | 23.3 | 24.12 | 34.37 |  |  |  | 
